Key:
Format in all cases: in vivo
[1] = tested on: Avena fatua; assay: Post-emergence test; conditions: after three weeks
Procedure: (§1) [table] To produce a suitable preparation of active compound, 1 part by weight of active compound is mixed with the stated amount of solvent, the stated amount of emulsifier is added and the concentrate is diluted with water to the desired concentration. Test plants of a height of 5-15 cm are sprayed with the preparation of active compound such that the particular amounts of active compound desired are applied per unit area. The concentration of the spray liquor is chosen such that the particular amount of active compound desired is applied in 1000 l of water/ha. After three weeks, the degree of damage to the plants is rated in % damage in comparison to the development of the untreated control. The figures denote: [table]

[2] = tested on: Sugar beet; assay: Post-emergence test; conditions: after three weeks
Procedure: as §1

[3] = tested on: Digitaria; assay: Post-emergence test; conditions: after three weeks
Procedure: as §1

[4] = tested on: Polygonum; assay: Post-emergence test; conditions: 60 g ai/ha, after three weeks
Procedure: as §1

[5] = tested on: Alopecurus; assay: Post-emergence test; conditions: after three weeks
Procedure: as §1

[6] = tested on: Setaria; assay: Post-emergence test; conditions: after three weeks
Procedure: as §1

[7] = tested on: Bromus; assay: Pre-emergence test; conditions: 125 g ai/ha, after three weeks
Procedure: (§2) [table] To produce a suitable preparation of active compound, 1 part by weight of active compound is mixed with the stated amount of solvent, the stated amount emulsifier is added and the concentrate is diluted with water to the desired concentration. Seeds of the test plants are sown in normal soil. After about 24 hours, the soil is sprayed with the preparation of active compound such that the particular amounts of active compound desired are applied per unit area. The concentration of the spray liquor is chosen such that the particular amounts of active compound desired are applied in 1000 l of water/ha. After three weeks, the degree of damage to the plants is rated in % damage in comparison to the development of the untreated controls. The figures denote: [table]

[8] = tested on: Lolium; assay: Pre-emergence test; conditions: after three weeks
Procedure: as §2

[9] = tested on: Soya bean; assay: Pre-emergence test; conditions: after three weeks
Procedure: as §2

[10] = tested on: Digitaria; assay: Pre-emergence test; conditions: 125 g ai/ha, after three weeks
Procedure: as §2

[11] = tested on: Alopecurus; assay: Pre-emergence test; conditions: after three weeks
Procedure: as §2

[12] = tested on: Abutilo; assay: Pre-emergence test; conditions: 125 g ai/ha, after three weeks
Procedure: as §2

[13] = tested on: Cyperus; assay: Pre-emergence test; conditions: 125 g ai/ha, after three weeks
Procedure: as §2

[14] = tested on: Setaria; assay: Pre-emergence test; conditions: after three weeks
Procedure: as §2

[15] = tested on: peach aphids (Myzus persicae); assay: Myzus test; conditions: active compound concentration of 1000 ppm; after 6 days; infested cabbage leaves dipped
Procedure: [table] To produce a suitable preparation of active compound, 1 part by weight of active compound is mixed with the stated amounts of solvent and emulsifier, and the concentrate is diluted with emulsifier-containing water to the desired concentration. Cabbage leaves (Brassica oleracea) which are heavily infested by the peach aphids (Myzus persicae) are treated by being dipped into the preparation of active compound of the desired concentration. After the desired period of time, the kill in % is determined. 100% means that all aphids have been killed; 0% means that none of the aphids have been killed.

[16] = tested on: greenhouse red spider mite (Tetranychus urticae); assay: Tetranychus test (OP-resistant/dip treatment); conditions: active compound concentration of 1000 ppm; after 7 days; infested bean plants dipped
Procedure: [table] To produce a suitable preparation of active compound, 1 part by weight of active compound is mixed with the stated amounts of solvent and emulsifier, and the concentrate is diluted with emulsifier-containing water to the desired concentration. Bean plants (Phaseolus vulgaris) which are heavily infested by all stages of the greenhouse red spider mite (Tetranychus urticae) are dipped into a preparation of active compound of the desired concentration. After the desired period of time, the effect in % is determined. 100% means that all spider mites have been killed; 0% means that none of the spider mites have been killed.

[17] = tested on: Lolium; assay: Post-emergence test; conditions: 125 g ai/ha, after three weeks
Procedure: as §1

[18] = tested on: Solanum; assay: Post-emergence test; conditions: 125 g ai/ha, after three weeks
Procedure: as §1

[19] = tested on: Viola; assay: Post-emergence test; conditions: 125 g ai/ha, after three weeks
Procedure: as §1

[20] = tested on: Wheat; assay: Post-emergence test; conditions: 125 g ai/ha, after three weeks
Procedure: as §1

[21] = tested on: Cassia; assay: Post-emergence test; conditions: 125 g ai/ha, after three weeks
Procedure: as §1

[22] = tested on: white fly Bemisia tabaci; assay: Bemisia test; conditions: active compound concentration of 1000 ppm; after 10 days; infested cotton plants dipped
Procedure: [table] To produce a suitable preparation of active compound, 1 part by weight of active compound is mixed with the stated amounts of solvent and emulsifier, and the concentrate is diluted with emulsifier-containing water to the desired concentrations. Cotton plants (Gossypium hirsutum) which are infested by eggs, larvae and pupae of the white fly Bemisia tabaci are dipped into a preparation of active compound of the desired concentration. After the desired period of time, the kill in % is determined. 100% means that all animals have been killed; 0% means that none of the animals have been killed.

[23] = tested on: Ipomoea; assay: Post-emergence test; conditions: 125 g ai/ha, after three weeks
Procedure: as §1

[24] = tested on: Veronica; assay: Pre-emergence test; conditions: 125 g ai/ha, after three weeks
Procedure: as §2

[25] = tested on: Sugar beet; assay: Pre-emergence test; conditions: 125 g ai/ha, after three weeks
Procedure: as §2

[26] = tested on: larvae of the mustard beetle (Phaedon cochleariae); assay: Phaedon larvae test; conditions: active compound concentration of 1000 ppm; after 7 days; cabbage leaves dipped
Procedure: (§3) [table] To produce a suitable preparation of active compound, 1 part by weight of active compound is mixed with the stated amounts of solvent and emulsifier, and the concentrate is diluted with emulsifier-containing water to the desired concentration. Cabbage leaves (Brassica oleracea) are treated by being dipped into the preparation of active compound of the desired concentration and are populated with larvae of the mustard beetle (Phaedon cochleariae) while the leaves are still moist. After the desired period of time, the kill in % is determined. 100% means that all beetle larvae have been killed; 0% means that none of the beetle larvae have been killed.

[27] = tested on: Sorghum; assay: Post-emergence test; conditions: 125 g ai/ha, after three weeks
Procedure: as §1

[28] = tested on: Soya bean; assay: Post-emergence test; conditions: 125 g ai/ha, after three weeks
Procedure: as §1

[29] = tested on: Galium; assay: Post-emergence test; conditions: 125 g ai/ha, after three weeks
Procedure: as §1

[30] = tested on: Chenopodium; assay: Pre-emergence test; conditions: 60 g ai/ha, after three weeks
Procedure: as §2

[31] = tested on: Wheat; assay: Pre-emergence test; conditions: 60 g ai/ha, after three weeks
Procedure: as §2

[32] = tested on: Echinochloa; assay: Pre-emergence test; conditions: 60 g ai/ha, after three weeks
Procedure: as §2

[33] = tested on: caterpillars of the army worm (Spodoptera frugiperda); assay: Spodoptera frugiperda test; conditions: active compound concentration of 1000 ppm; after 7 days; cabbage leaves dipped
Procedure: as §3, with “caterpillars” for “larvae”, “army worm (Spodoptera frugiperda)” for “mustard beetle (Phaedon cochleariae)”, “caterpillars” for “beetle larvae”

[34] = tested on: Oilseed rape; assay: Post-emergence test; conditions: 125 g ai/ha, after three weeks
Procedure: as §1

[35] = tested on: green rice leaf hopper (Nephotettix cincticeps); assay: Nephotettix test; conditions: active compound concentration of 1000 ppm; after 6 days; rice seedlings dipped
Procedure: [table] To produce a suitable preparation of active compound, 1 part by weight of active compound is mixed with the stated amounts of solvent and emulsifier, and the concentrate is diluted with emulsifier-containing, water to the desired concentration. Rice seedlings (Oryza sativa) are treated by being dipped into the preparation of active compound of the desired concentrated and are populated with the green rice leaf hopper (Nephotettix cincticeps) while the leaves are still moist. After the desired period of time, the kill in % is determined. 100% means that all leaf hoppers have been killed; 0% means that none of the leaf hoppers have been killed.

SMILES | % damage Lolium ([8]; 125 g ai/ha) [%] | % damage Soya bean ([9]; 125 g ai/ha) [%] | % damage Digitaria [10] [%] | % damage Alopecurus ([11]; 125 g ai/ha) [%] | % damage Setaria ([14]; 125 g ai/ha) [%] | kill in % [16] [%] | % damage Lolium [17] [%] | % damage Sugar beet ([2]; 125 g ai/ha) [%] | % damage Digitaria ([3]; 125 g ai/ha) [%] | % damage Setaria ([6]; 125 g ai/ha) [%] | kill in % [26] [%] | % damage Sorghum [27] [%] | % damage Galium [29] [%] | also measured
C#Cc1cc(C)c(C2=C(OC(=O)OCC)C3(CCC(OC)CC3)NC2=O)c(C)c1 (centres unmarked) [Example I-1-c-4] | 100 | 20 | 100 | 95 | 100 | 100 | – | – | – | – | – | – | – | % damage Avena fatua ([1]; 60 g ai/ha): 90%; % damage Sugar beet ([2]; 60 g ai/ha): 10%; % damage Digitaria ([3]; 60 g ai/ha): 95%; % damage Polygonum [4]: 70%; % damage Alopecurus ([5]; 60 g ai/ha): 90%; % damage Setaria ([6]; 60 g ai/ha): 100%; % damage Bromus [7]: 100%; % damage Abutilo [12]: 70%; % damage Cyperus [13]: 100%; kill in % [15]: 100%
CCc1cc(C)cc(C)c1C1=C(OC(=O)C(C)(C)C)C2(CCC(OC)CC2)OC1=O (centres unmarked) [Example I-2-b-10] | – | – | – | – | – | 100 | 80 | – | – | – | – | – | – | % damage Solanum [18]: 80%; % damage Viola [19]: 90%; % damage Wheat [20]: 10%; % damage Cassia [21]: 95%; kill in % [22]: 100%
C#Cc1cc(C)c(C2=C(O)C3(CCC(OC)CC3)NC2=O)c(C)c1 (centres unmarked) [Example I-1-a-21] | 100 | 0 | 100 | 100 | 100 | 100 | 95 | 0 | 100 | 99 | 100 | – | – | % damage Avena fatua ([1]; 125 g ai/ha): 90%; % damage Alopecurus ([5]; 125 g ai/ha): 100%; % damage Ipomoea [23]: 70%; % damage Veronica [24]: 100%; % damage Sugar beet [25]: 0%
CCc1cc(CC)c(C2=C(O)C3(CCC(C)CC3)NC2=O)c(CC)c1 (centres unmarked) [Example I-1-a-5] | – | – | – | – | – | – | – | – | 90 | 100 | – | 95 | 80 | % damage Soya bean [28]: 10%; % damage Lolium ([8]; 60 g ai/ha): 100%; % damage Soya bean ([9]; 60 g ai/ha): 0%; % damage Chenopodium [30]: 70%; % damage Alopecurus ([11]; 60 g ai/ha): 100%; % damage Wheat [31]: 0%; % damage Echinochloa [32]: 100%; % damage Setaria ([14]; 60 g ai/ha): 100%
CCc1cc(C)cc(C)c1C1=C(O)C2(CCCCC2)OC1=O [Example I-2-a-3] | – | – | – | – | – | – | – | – | – | – | 100 | – | – | kill in % [33]: 100%
CCc1cc(C)c(C2=C(O)C3(CCC(C)CC3)NC2=O)c(CC)c1 (centres unmarked) [Example I-1-a-2] | – | – | – | – | – | – | 70 | 0 | 80 | 95 | 100 | 80 | 80 | % damage Oilseed rape [34]: 0%; kill in % [35]: 100%

Source: patent US7915282B2, “C2-phenyl-substituted cyclic keto-enols used as pesticides and herbicides” (Bayer Aktiengesellschaft, priority 2000, dated 2011)
